Experimental data reported in US20240181022A1, “AMURINS LYSINS, AND LYSIN-ANTIMICROBIAL PEPTIDE (AMP) CONSTRUCTS ACTIVE AGAINST GRAM-NEGATIVE BACTERIA” (priority 2021, published 2024).
Converted amounts (≈) assume the structure as drawn.

Columns and labels:
A. ruhlandii = assay: MIC by broth microdilution against A. ruhlandii; format: cell-based, Achromobacter ruhlandii; conditions: A. ruhlandii isolates
Protocol: (§1) MIC values were determined using a modification of the standard broth microdilution reference method defined by the Clinical and Laboratory Standards Institute (CLSI), CLSL. 2015. Methods for Dilution Antimicrobial Susceptibility Tests for Bacteria That Grow Aerobically; Approved Standard-10th Edition. Clinical and Laboratory Standards Institute, Wayne, PA. The modification was based on the replacement of Mueller Hinton Broth with either CAA media (with and without NaCl) or CAA supplemented with 2.5% human serum. MIC is the minimum concentration of peptide sufficient to suppress at least 80% of the bacterial growth compared to control.
(§2) Based on these nine most prevalent strains, direct lytic agents, including GN370, AM1, AM2, and AM3, were evaluated against various isolates from each of the 9 strains. MICs and MBECs (Example 3) were determined, and a sputum inhibition test was conducted, as described below in Example 5.
(§3) The MICs for were determined as described below using the broth microdilution method for meropenem, GN370, AM1, AM2, and AM3. The results are shown below in Tables 8-12.

P. aeruginosa = assay: Time-kill assay in cystic fibrosis patient sputum, P. aeruginosa; format: cell-based, Pseudomonas aeruginosa
Text: (§4) Sputum from 5 cystic fibrosis patients was pooled. The resulting mixture was not filtered, as it was very dense and not amenable to sterilization by filtration. Sputum is known to be a complex mixture of DNA, carbohydrates, and lipids ([…], 2016). As used herein, the term “sputum” refers to the mucus present in the respiratory tract of an animal, such as a human. Sputum may increase in thickness due to the irritation or infection, including bacterial infection, and in some instances, may be expelled by the animal while coughing. In certain instances, cystic fibrosis may be characterized by the presence of a thick, sticky mucus or sputum present in the lungs of cystic fibrosis patients. The activity of GN370, AM1, AM2, AM3, and meropenem was determined in the sputum using a time-kill assay format as disclosed in Zhang et al., Antimicrobial peptide therapeutics for cystic fibrosis, Antimicrobial Agents Chemother. 2005; 49(7):2921-2927. […] Untreated controls were included in addition to pretreatment plating (t=0) for a baseline CFU determination. Activity was also determined in the absence of sputum for comparison to activity observed in the presence of sputum.

A. xylosoxidans = assay: Time-kill assay in cystic fibrosis patient sputum, A. xylosoxidans; format: cell-based, Achromobacter xylosoxidans
Text: as §4

B. gladioli = assay: MIC by broth microdilution against B. gladioli; format: cell-based, Burkholderia gladioli; conditions: B. gladioli isolates
Protocol: as §1, §2, §3

## C[C@@H](O)[C@H]1C(=O)N2C(C(=O)O)=C(S[C@@H]3CN[C@H](C(=O)N(C)C)C3)[C@H](C)[C@H]12 [meropenem, reference compound]
A. ruhlandii
  MIC50: 16 µg/mL (≈ 41.7 µM)
  MIC90: > 32 µg/mL
P. aeruginosa
  activity in the presence and absence of sputum: poorly active
P. aeruginosa; absence of sputum, 1 hr
  Log10 CFU/mL of sputum: 5.38 Log10 CFU/mL of sputum
P. aeruginosa; absence of sputum, 3 hr
  Log10 CFU/mL of sputum: 4.98 Log10 CFU/mL of sputum
P. aeruginosa; absence of sputum, 24 hr
  Log10 CFU/mL of sputum: 6.38 Log10 CFU/mL of sputum
P. aeruginosa; presence of 10% sputum, 1 hr
  Log10 CFU/mL of sputum: 5.26 Log10 CFU/mL of sputum
P. aeruginosa; presence of 10% sputum, 3 hr
  Log10 CFU/mL of sputum: 4.78 Log10 CFU/mL of sputum
P. aeruginosa; presence of 10% sputum, 24 hr
  Log10 CFU/mL of sputum: 6.6 Log10 CFU/mL of sputum
A. xylosoxidans
  activity in the presence and absence of sputum: poorly active
A. xylosoxidans; absence of sputum, 1 hr
  Log10 CFU/mL of sputum: 4.9 Log10 CFU/mL of sputum
A. xylosoxidans; absence of sputum, 3 hr
  Log10 CFU/mL of sputum: 5.3 Log10 CFU/mL of sputum
A. xylosoxidans; absence of sputum, 24 hr
  Log10 CFU/mL of sputum: 7.3 Log10 CFU/mL of sputum
A. xylosoxidans; presence of 10% sputum, 1 hr
  Log10 CFU/mL of sputum: 4.78 Log10 CFU/mL of sputum
A. xylosoxidans; presence of 10% sputum, 3 hr
  Log10 CFU/mL of sputum: 4.3 Log10 CFU/mL of sputum
A. xylosoxidans; presence of 10% sputum, 24 hr
  Log10 CFU/mL of sputum: 7.56 Log10 CFU/mL of sputum
B. gladioli
  MIC50: 1 µg/mL (≈ 2.61 µM)
  MIC90: 2 µg/mL (≈ 5.22 µM)
